Reference: US20060030616A1, “Anhydride modified cantharidin analogues useful in the treatment of cancer” (priority 1998, published 2006)

Tests used:
HT29 cells = test: Cell cycle analysis, flow cytometry of propidium iodide stained cells; type: cell-based, human; details: 12 h
Method: (§1) The cells are fixed in 70% ethanol and stored at −20° C. until analysis is performed (1-2 weeks). After fixing, the cells are pelleted and incubated in PBS containing propidium iodide ([…]) and RNase A (200 mg/ml) for at least 30 min at room temperature. The samples (2×10^4 events) are analysed using a Becton Dickson FACScan, fluorescence is collected in fluorescence detector 2 (FL2), filter 575/30 nm band pass. Cell cycle distribution is assessed using Cell Quest software (Becton Dickson).
(§2) The ability of the protein phosphatase inhibitors to abrogate the G1 or G2 checkpoint of the cell cycle may be determined by cell cycle analysis using flow cytometry. Briefly, asynchronous cell cultures are harvested 18 h after 6 Gy irradiation and/or 12 h incubation with the protein phosphatase inhibitor. Depending upon the p53 status of the cell line, radiation treatment alone will induce arrest in either G1 and/or G2 phase of the cell cycle.
(§3) Data shown in Table 2 and FIG. 4 show the cell cycle response of L1210, HL60, HT29 and HCT116 cells to cantharidin and the new cantharidin analogues MK-2 and MK-4 after 12 h exposure. In summary, cantharidin and MK-2 produced a similar response and induced G2 arrest in all four cell lines tested. […] HL60 and HCT116 cells. […] The magnitude of the cell cycle arrest induced by these drugs directly correlated with their cytotoxicity in the respective cell lines. […] The cytotoxicity of the […]

HL60 cells = test: as above; type: cell-based, human; details: for Cell Cycle Distribution, G1 / Cell Cycle Distribution, G2 + M / Cell Cycle Distribution, S / Cell Cycle Distribution, sub G1 / Cell cycle remark: 12 h
Method: as §1, §2, §3

HCT116 cells = test: as above; type: cell-based, human
Method: as §1, §2, §3

L1210 cells = test: MTT cytotoxicity assay, 72 h; type: cell-based, murine; details: L1210, p53 wt; read-out: IC50 (mean ± SE) after 72 h continuous exposure
Method: Cells in a subconfluent phase are transferred to 96-well microtitre plates. L1210 cells are plated at a density of 1000 cells/well in 100 μl medium, while all other cell lines are plated at a density of 2000-25000 cells/well. The cells are left for 24 h prior to treatment to ensure exponential growth has been achieved, 24 h after plating (day 0), 100 μl of phosphatase inhibitor is added to each well, control wells received 100 μl of medium only. Drug exposure time is 72 h (day 3). The effect of phosphatase inhibition is tested in triplicate over a concentration range of […]−1×10^−8 M. Growth inhibitory effects are evaluated using the MTT assay and absorbance read at […]. The IC50 is the drug concentration at which cell growth is 50% inhibited based on the difference of optical density on day 0 and day 3 of drug exposure. Cytotoxicity is evaluated using a spectrophotometric assay which determines the percentage of cell growth following exposure of the cells to various concentrations of the phosphatase inhibitors for a period of 72 hours. The subsequent dose response curve is used to calculate IC50 values (the drug concentration at which cell growth is 50% inhibited).
Anti-cancer screening of the protein phosphatase inhibitors is assessed using the MTT assay. This assay determines cell viability by the ability of mitochondrial dehydrogenase to produce formazan crystals from 3-(4,5-dimethylthiazol-2-yl)-2,5-diphenyltetrazolium bromide. The viable cell number/well is directly proportional to the production of formazan, which following solubilization, can be measured spectrophotometrically (540 nm). This technique is also used by the National Cancer Institute to screen for new anticancer agents.
As described herein a number of cantharidin analogues have been synthesised and tested for their anticancer activity in nine cancer cell lines using the MTT assay after 72 h exposure. These new analogues are shown in FIG. 2 and have been designated MK-1 through to MK-9.

SMILES: O=C1OC(=O)C2C3C=CC(O3)C12 (centres unmarked) [MK-2]
- Cell Cycle Distribution, G1 (HT29 cells; HT29, 50 μM): 45.3 percentage of total
- Cell Cycle Distribution, G2 + M (HT29 cells; HT29, 50 μM): 37.1 percentage of total
- Cell Cycle Distribution, S (HT29 cells; HT29, 50 μM): 7.6 percentage of total
- Cell Cycle Distribution, sub G1 (HT29 cells; HT29, 50 μM): 9.4 percentage of total
- Cell Cycle Distribution, G1 (HT29 cells; HT29, 100 μM): 49.8 percentage of total
- Cell Cycle Distribution, G2 + M (HT29 cells; HT29, 100 μM): 37.6 percentage of total
- Cell Cycle Distribution, S (HT29 cells; HT29, 100 μM): 8.2 percentage of total
- Cell Cycle Distribution, sub G1 (HT29 cells; HT29, 100 μM): 3.6 percentage of total
- Cell Cycle Distribution, G1 (HT29 cells; HT29, 250 μM): 41.4 percentage of total
- Cell Cycle Distribution, G2 + M (HT29 cells; HT29, 250 μM): 42.5 percentage of total
- Cell Cycle Distribution, S (HT29 cells; HT29, 250 μM): 11.2 percentage of total
- Cell Cycle Distribution, sub G1 (HT29 cells; HT29, 250 μM): 4.2 percentage of total
- Cell cycle remark (HT29 cells; HT29, 250 μM): G2 arrest
- Cell Cycle Distribution, G1 (HT29 cells; HT29, 500 μM): 44.5 percentage of total
- Cell Cycle Distribution, G2 + M (HT29 cells; HT29, 500 μM): 33.6 percentage of total
- Cell Cycle Distribution, S (HT29 cells; HT29, 500 μM): 15.4 percentage of total
- Cell Cycle Distribution, sub G1 (HT29 cells; HT29, 500 μM): 5.2 percentage of total
- Cell cycle remark (HT29 cells; HT29, 500 μM): S-phase↑
- Cell Cycle Distribution, G1 (HL60 cells; HL60, 50 μM): 44.1 percentage of total
- Cell Cycle Distribution, G2 + M (HL60 cells; HL60, 50 μM): 31.4 percentage of total
- Cell Cycle Distribution, S (HL60 cells; HL60, 50 μM): 23.8 percentage of total
- Cell Cycle Distribution, sub G1 (HL60 cells; HL60, 50 μM): 1.8 percentage of total
- Cell Cycle Distribution, G1 (HL60 cells; HL60, 100 μM): 43.3 percentage of total
- Cell Cycle Distribution, G2 + M (HL60 cells; HL60, 100 μM): 32.4 percentage of total
- Cell Cycle Distribution, S (HL60 cells; HL60, 100 μM): 23.6 percentage of total
- Cell Cycle Distribution, sub G1 (HL60 cells; HL60, 100 μM): 1.8 percentage of total
- Cell Cycle Distribution, G1 (HL60 cells; HL60, 250 μM): 37.7 percentage of total
- Cell Cycle Distribution, G2 + M (HL60 cells; HL60, 250 μM): 36.4 percentage of total
- Cell Cycle Distribution, S (HL60 cells; HL60, 250 μM): 23.8 percentage of total
- Cell Cycle Distribution, sub G1 (HL60 cells; HL60, 250 μM): 3.2 percentage of total
- Cell cycle remark (HL60 cells; HL60, 250 μM): G2 arrest
- Cell Cycle Distribution, G1 (HL60 cells; HL60, 500 μM): 17.8 percentage of total
- Cell Cycle Distribution, G2 + M (HL60 cells; HL60, 500 μM): 43.1 percentage of total
- Cell Cycle Distribution, S (HL60 cells; HL60, 500 μM): 21.6 percentage of total
- Cell Cycle Distribution, sub G1 (HL60 cells; HL60, 500 μM): 18.8 percentage of total
- Cell cycle remark (HL60 cells; HL60, 500 μM): Cell death
- Cell cycle response (HL60 cells; HL60, 12 h exposure): G2 arrest
- Cell Cycle Distribution, G1 (HCT116 cells; HCT116, 50 μM, 12 h): 47.2 percentage of total
- Cell Cycle Distribution, G2 + M (HCT116 cells; HCT116, 50 μM, 12 h): 37.4 percentage of total
- Cell Cycle Distribution, S (HCT116 cells; HCT116, 50 μM, 12 h): 13.8 percentage of total
- Cell Cycle Distribution, sub G1 (HCT116 cells; HCT116, 50 μM, 12 h): 1.3 percentage of total
- Cell Cycle Distribution, G1 (HCT116 cells; HCT116, 100 μM, 12 h): 47.2 percentage of total
- Cell Cycle Distribution, G2 + M (HCT116 cells; HCT116, 100 μM, 12 h): 34.5 percentage of total
- Cell Cycle Distribution, S (HCT116 cells; HCT116, 100 μM, 12 h): 16.0 percentage of total
- Cell Cycle Distribution, sub G1 (HCT116 cells; HCT116, 100 μM, 12 h): 1.7 percentage of total
- Cell Cycle Distribution, G1 (HCT116 cells; HCT116, 250 μM, 12 h): 52.8 percentage of total
- Cell Cycle Distribution, G2 + M (HCT116 cells; HCT116, 250 μM, 12 h): 34.3 percentage of total
- Cell Cycle Distribution, S (HCT116 cells; HCT116, 250 μM, 12 h): 11.1 percentage of total
- Cell Cycle Distribution, sub G1 (HCT116 cells; HCT116, 250 μM, 12 h): 1.4 percentage of total
- Cell Cycle Distribution, G1 (HCT116 cells; HCT116, 500 μM, 12 h): 39.4 percentage of total
- Cell Cycle Distribution, G2 + M (HCT116 cells; HCT116, 500 μM, 12 h): 46.5 percentage of total
- Cell Cycle Distribution, S (HCT116 cells; HCT116, 500 μM, 12 h): 11.3 percentage of total
- Cell Cycle Distribution, sub G1 (HCT116 cells; HCT116, 500 μM, 12 h): 2.5 percentage of total
- Cell cycle remark (HCT116 cells; HCT116, 500 μM, 12 h): G2 arrest
- Cell cycle response (HCT116 cells; HCT116, 12 h exposure): G2 arrest
- IC50 (L1210 cells): 185 ± 51 µM
